According to patent US7820650B2, “Antifungal 4-substituted 5,6-dihydro-4H-pyrrolo [1,2-a][1,4]benzodiazepines” (Janssen Pharmaceutica NV, priority 2000, dated 2010):

How the values were obtained:
Assay in all cases: Determination of fungal susceptibility (MIC, microdilution in CYG medium)
Assay type in all cases: cell-based
[1] = system: Trichophyton rubrum; settings: single isolate, 5 days at 30° C., growth (OD 405 nm) inhibited to 35% of control or less
Procedure: (§1) A panel single isolates of the dermatophytes Sporothrix schenckii; Microsporum canis; Trichophyton rubrum; Trichophyton mentagrophyte; Candida parapsilosis; Cryptococcus neoformans; and Aspergillus fumigatus were used to evaluate the activity of the test compounds in vitro. Inocula were prepared as broth cultures (yeasts) or as suspensions of fungal material made from agar slope cultures (moulds). The test compounds were pipetted from dimethylsulfoxide stock solution into water to provide a series of 10-fold dilutions. The fungal inocula were suspended in the growth medium CYG (F.C. Odds, Journal of Clinical Microbiology, 29, 2735-2740, 1991) at approximately 50,000 colony-forming units (CFU) per ml and added to the aqueous test drugs. The cultures were set up in the 96 wells of plastic microdilution plates and they were incubated for 2 days at 37° C. (Candida spp.) or for 5 days at 30° C. (other fungi). Growth in the microcultures was measured by their optical density (OD) measured at a wavelength of 405 nm. The OD for cultures with test compounds was calculated as a percentage of the OD for control cultures, i.e. the OD for cultures without test compounds. Inhibition of growth to 35% of control or less was recorded as significant inhibition. Minimal inhibitory concentration (MIC; in 10^−6 M) of some of the compounds of formula (I) for the tested species are listed in Table.

[2] = system: Microsporum canis; settings: single isolate, 5 days at 30° C., growth (OD 405 nm) inhibited to 35% of control or less
Procedure: as §1

[3] = system: Aspergillus fumigatus; settings: single isolate, 5 days at 30° C., growth (OD 405 nm) inhibited to 35% of control or less
Procedure: as §1

[4] = system: Trichophyton mentagrophytes; settings: single isolate, 5 days at 30° C., growth (OD 405 nm) inhibited to 35% of control or less
Procedure: as §1

[5] = system: Sporothrix schenckii; settings: single isolate, 5 days at 30° C., growth (OD 405 nm) inhibited to 35% of control or less
Procedure: as §1

[6] = system: Candida parapsilosis; settings: single isolate, 2 days at 37° C., growth (OD 405 nm) inhibited to 35% of control or less
Procedure: as §1

[7] = system: Cryptococcus neoformans; settings: single isolate, 5 days at 30° C., growth (OD 405 nm) inhibited to 35% of control or less
Procedure: as §1

| SMILES | MIC values, Trichophyton rubrum [1] | MIC values, Microsporum canis [2] | MIC values, Aspergillus fumigatus [3] | MIC values, Trichophyton mentagrophytes [4] | MIC values, Sporothrix schenkii [5] | MIC values, Candida parapsilosis [6] | MIC values, Cryptococcus neoformans [7] |
| --- | --- | --- | --- | --- | --- | --- | --- |
| Br.COc1ccc(C2NCc3c(Cl)cccc3-n3cccc32)cc1 (stereo not drawn) [Comp. 1] | 2.1 10^−6 M | 5.5 10^−6 M | 10 10^−6 M | 2.1 10^−6 M | >10 10^−6 M | >10 10^−6 M | >10 10^−6 M |
| Br.CCc1ccc(C2NCc3c(Cl)cccc3-n3cccc32)cc1 (stereo not drawn) [Comp. 2] | 0.03 10^−6 M | 0.32 10^−6 M | 3.2 10^−6 M | 0.32 10^−6 M | >10 10^−6 M | 1 10^−6 M | >10 10^−6 M |
| Br.FC(F)(F)c1cccc(C2NCc3c(Cl)cccc3-n3cccc32)c1 (stereo not drawn) [Comp. 3] | 2.1 10^−6 M | 2.1 10^−6 M | 10 10^−6 M | 3.2 10^−6 M | >10 10^−6 M | >10 10^−6 M | >10 10^−6 M |
| Br.CC(C)c1ccc(C2NCc3ccccc3-n3cccc32)cc1 (stereo not drawn) [Comp. 4] | 3.2 10^−6 M | 10 10^−6 M | >10 10^−6 M | 3.2 10^−6 M | >10 10^−6 M | >10 10^−6 M | >10 10^−6 M |
| Br.Cc1ccc(C2NCc3c(Cl)cccc3-n3cccc32)cc1 (stereo not drawn) [Comp. 5] | 0.32 10^−6 M | 1 10^−6 M | >10 10^−6 M | 1 10^−6 M | >10 10^−6 M | >10 10^−6 M | >10 10^−6 M |
| Br.CC(C)c1ccc(C2NCc3c(Cl)cccc3-n3cccc32)cc1 (stereo not drawn) [Comp. 6] | 0.32 10^−6 M | 0.32 10^−6 M | >10 10^−6 M | 1 10^−6 M | >10 10^−6 M | 10 10^−6 M | >10 10^−6 M |
| Br.CC(C)(C)c1ccc(C2NCc3c(Cl)cccc3-n3cccc32)cc1 (stereo not drawn) [Comp. 7] | 0.1 10^−6 M | 0.32 10^−6 M | >10 10^−6 M | 1 10^−6 M | 10 10^−6 M | 10 10^−6 M | >10 10^−6 M |
| Br.CCCCc1ccc(C2NCc3c(Cl)cccc3-n3cccc32)cc1 (stereo not drawn) [Comp. 8] | 0.1 10^−6 M | 1 10^−6 M | >10 10^−6 M | 1 10^−6 M | >10 10^−6 M | >10 10^−6 M | >10 10^−6 M |
| Br.CCCc1ccc(C2NCc3c(Cl)cccc3-n3cccc32)cc1 (stereo not drawn) [Comp. 9] | 0.1 10^−6 M | 0.32 10^−6 M | >10 10^−6 M | 0.32 10^−6 M | >10 10^−6 M | 3.2 10^−6 M | >10 10^−6 M |
| CCc1ccc(C2c3cccn3-c3cccc(Cl)c3CN2C)cc1 (stereo not drawn) [Comp. 10, 4-(4′-ethylphenyl)-5-methyl-7-chlorobenzo[1,2]-pyrrolo-[1,2a][1,4]diazepine] | 3.2 10^−6 M | >10 10^−6 M | >10 10^−6 M | 10 10^−6 M | >10 10^−6 M | >10 10^−6 M | >10 10^−6 M |
| CCc1ccc(C2NCc3cc(Cl)ccc3-n3cccc32)cc1 (stereo not drawn) [Comp. 11] | 3.2 10^−6 M | >10 10^−6 M | >10 10^−6 M | 3.2 10^−6 M | >10 10^−6 M | >10 10^−6 M | >10 10^−6 M |
| Br.Clc1cccc2c1CNC(c1ccsc1)c1cccn1-2 (stereo not drawn) [Comp. 12] | 3.2 10^−6 M | >10 10^−6 M | >10 10^−6 M | >10 10^−6 M | >10 10^−6 M | >10 10^−6 M | >10 10^−6 M |
| Br.CCc1ccc(C2NCc3ccccc3-n3cccc32)cc1 (stereo not drawn) [Comp. 13] | 1 10^−6 M | >10 10^−6 M | >10 10^−6 M | 3.2 10^−6 M | >10 10^−6 M | >10 10^−6 M | >10 10^−6 M |
| CC(C)c1ccc(C2NCc3c(F)cccc3-n3cccc32)cc1 (stereo not drawn) [Comp. 14] | 0.32 10^−6 M | 10 10^−6 M | >10 10^−6 M | 1 10^−6 M | >10 10^−6 M | >10 10^−6 M | >10 10^−6 M |
| CCc1ccc(C2NCc3c(F)cccc3-n3cccc32)cc1 (stereo not drawn) [Comp. 15] | 0.32 10^−6 M | 3.2 10^−6 M | 10 10^−6 M | 1 10^−6 M | >10 10^−6 M | 10 10^−6 M | >10 10^−6 M |
| Br.CCc1ccc(C2NCc3ccc(Cl)cc3-n3cccc32)cc1 (stereo not drawn) [Comp. 16] | 0.1 10^−6 M | 1 10^−6 M | >10 10^−6 M | 1 10^−6 M | >10 10^−6 M | >10 10^−6 M | >10 10^−6 M |
| Br.CCOc1ccc(C2NCc3ccc(Cl)cc3-n3cccc32)cc1 (stereo not drawn) [Comp. 17] | 10 10^−6 M | >10 10^−6 M | >10 10^−6 M | 10 10^−6 M | >10 10^−6 M | >10 10^−6 M | >10 10^−6 M |
| Br.CC(C)c1ccc(C2NCc3ccc(Cl)cc3-n3cccc32)cc1 (stereo not drawn) [Comp. 18] | 1 10^−6 M | >10 10^−6 M | >10 10^−6 M | 1 10^−6 M | >10 10^−6 M | >10 10^−6 M | >10 10^−6 M |
| Br.Cc1ccc(C2NCc3ccc(Cl)cc3-n3cccc32)cc1 (stereo not drawn) [Comp. 19] | 0.32 10^−6 M | 10 10^−6 M | >10 10^−6 M | 3.2 10^−6 M | >10 10^−6 M | >10 10^−6 M | >10 10^−6 M |
| Br.N#Cc1ccc(C2NCc3ccc(Cl)cc3-n3cccc32)cc1 (stereo not drawn) [Comp. 20] | 0.32 10^−6 M | >10 10^−6 M | >10 10^−6 M | >10 10^−6 M | >10 10^−6 M | >10 10^−6 M | >10 10^−6 M |
| CCc1ccc(C2=NCc3ccccc3-n3cccc32)cc1 [Comp. 21] | 0.03 10^−6 M | 0.32 10^−6 M | 1 10^−6 M | 0.32 10^−6 M | 10 10^−6 M | 3.2 10^−6 M | >10 10^−6 M |
